Entries after “also recorded” stand apart in the source; their conditions may differ.
Columns and labels:
[1] = target: T1, Calcitonin (CGRP) (Homo sapiens, UniProt O60894+Q16602); experiment: CGRP receptor Aequorin assay; type: cell-based
T1 construct: expressed in transfected cells; host or cells: CHO-AEQ (CHO-K1 with mitochondrial apoaequorin)
Description: (§1) CHO-K1 cells coexpressing mitochondrial apoaequorin and the recombinant human receptor of interest were grown to mid-log phase in culture media without antibiotics and then detached with PBS-EDTA, centrifuged and resuspended in assay buffer (DMEM/HAM's F12 with HEPES, without phenol red+0.1% BSA, protease free) at a concentration of 1×10^6 cell/mL. Cells were incubated at room temperature for at least 4 hours with coelenterazine h. Reference agonist/antagonist was tested to evaluate the performance of the assay and to determine EC50/IC50.
(§2) 50 μL of the cell suspension was mixed with 50 μL of test or reference agonist in a 96-well plate. […] For antagonist testing, 100 μL of the reference agonist at its EC80 was injected on the mix of cells and test compound, following an incubation of 15 minutes after the first injection. The resulting emission of light was r recorded using Hamamatsu Functional Drug Screening System 6000 (FDSS 6000) luminometer. To standardize the emission of recorded light (and determine of the “100% signal”) across plates and across different experiments, some wells contained 100 μM digitonin or a saturating concentration of ATP (20 μM).

[2] = target: human α2C receptor (Homo sapiens, UniProt P18825); experiment: GTPγS antagonist assay, α2C; type: biochemical; conditions: read-out: IC50, α2C antagonism
Sequence of human α2C receptor (P18825 whole entry): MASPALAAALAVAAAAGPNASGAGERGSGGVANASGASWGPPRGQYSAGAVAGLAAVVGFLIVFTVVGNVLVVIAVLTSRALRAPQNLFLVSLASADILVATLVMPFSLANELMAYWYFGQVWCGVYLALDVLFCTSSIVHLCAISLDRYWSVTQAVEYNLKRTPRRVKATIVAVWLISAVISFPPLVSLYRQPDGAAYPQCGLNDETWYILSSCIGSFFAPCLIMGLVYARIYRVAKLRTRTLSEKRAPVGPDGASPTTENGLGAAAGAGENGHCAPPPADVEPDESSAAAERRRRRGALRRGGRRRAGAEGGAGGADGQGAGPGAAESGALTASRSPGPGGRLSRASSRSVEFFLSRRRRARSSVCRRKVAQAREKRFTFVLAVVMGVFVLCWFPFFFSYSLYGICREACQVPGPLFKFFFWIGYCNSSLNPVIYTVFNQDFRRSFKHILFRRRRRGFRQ

[3] = target: human 5-HT1D receptor (Homo sapiens, UniProt P28221); experiment: GTPγS agonist assay, 5-HT1D; type: biochemical
Sequence of human 5-HT1D receptor (P28221 whole entry): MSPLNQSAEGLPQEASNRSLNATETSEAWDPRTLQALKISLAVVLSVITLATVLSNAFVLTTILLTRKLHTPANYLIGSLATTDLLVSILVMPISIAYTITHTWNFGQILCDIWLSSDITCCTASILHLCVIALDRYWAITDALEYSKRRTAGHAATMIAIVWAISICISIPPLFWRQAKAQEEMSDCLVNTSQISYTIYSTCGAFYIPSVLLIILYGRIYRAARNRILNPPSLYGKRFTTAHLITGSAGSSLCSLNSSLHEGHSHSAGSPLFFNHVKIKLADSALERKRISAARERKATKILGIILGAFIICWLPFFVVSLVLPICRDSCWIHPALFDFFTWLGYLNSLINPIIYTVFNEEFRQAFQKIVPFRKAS
Description: The mixture was shaken for 2 minutes prior to a 60 min incubation. It was then centrifuged for 10 minutes and counted for 1 minute with a Perkin Elmer TopCount reader. The resulting emission of light was recorded using a luminometer. Agonist percentage activation determinations were obtained by comparing with the Emax of the reference agonist α-methyl-5-HT.

[4] = target: T2, α1A receptor (Homo sapiens, UniProt P35348); experiment: Competitive antagonist activity, adrenergic α1A; type: cell-based; conditions: read-out: IC50, α1A antagonism
T2 construct: expressed in transfected cells
T2 sequence (P35348 whole entry): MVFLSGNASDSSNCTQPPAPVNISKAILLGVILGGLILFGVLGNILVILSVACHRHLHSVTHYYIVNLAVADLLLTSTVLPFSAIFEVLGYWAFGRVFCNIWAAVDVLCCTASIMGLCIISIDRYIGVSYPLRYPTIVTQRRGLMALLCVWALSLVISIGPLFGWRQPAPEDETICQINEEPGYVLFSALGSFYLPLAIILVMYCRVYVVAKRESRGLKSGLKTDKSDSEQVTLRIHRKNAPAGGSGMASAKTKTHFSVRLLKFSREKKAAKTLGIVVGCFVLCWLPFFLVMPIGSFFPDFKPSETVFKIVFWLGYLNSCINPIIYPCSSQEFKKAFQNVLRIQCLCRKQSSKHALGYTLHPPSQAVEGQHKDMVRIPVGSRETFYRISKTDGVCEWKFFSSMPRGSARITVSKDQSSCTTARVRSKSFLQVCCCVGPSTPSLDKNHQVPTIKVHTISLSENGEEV

[5] = system: Calcitonin (AM1/AM2); experiment: Calcitonin (AM1/AM2) cAMP HTRF assays; type: cell-based, human
Description: Cells expressing the human recombinant receptor of interest were grown in media without antibiotic and detached by gentle flushing with PBS-EDTA (5 mM EDTA), recovered by centrifugation and resuspended in assay buffer (KRH: 5 mM KCl, 1.25 mM MgSO4, 124 mM NaCl, 25 mM HEPES, 13.3 mM glucose, 1.25 mM KH2PO4, 1.45 mM CaCl2, 0.5 g/L BSA). Dose response curves were performed in parallel with the reference compounds. For agonist tests (96-well plates), 12 μL of cells was mixed with 12 μL of the test compound at increasing concentrations and then incubated for 30 minutes at room temperature. Lysis buffer was added and after a 1 hour incubation, cAMP concentrations was determined according to the manufacturer specification with the HTRF kit. […] Lysis buffer was added and after a 1 hour incubation, cAMP concentrations were determined according to the manufacturer specification, with the HTRF kit.
Cells expressing the human recombinant receptor of interest were grown in media without antibiotic and detached by gentle flushing with PBS-EDTA (5 mM EDTA), recovered by centrifugation and resuspended in assay buffer (KRH: 5 mM KCl, 1.25 mM MgSO4, 124 mM NaCl, 25 mM HEPES, 13.3 mM glucose, 1.25 mM KH2PO4, 1.45 mM CaCl2, 0.5 g/L BSA). […] Lysis buffer was added and after a 1 hour incubation, cAMP concentrations was determined according to the manufacturer specification with the HTRF kit. […]

[6] = target: human α2A receptor (Homo sapiens, UniProt P08913); experiment: GTPγS antagonist assay, α2A; type: biochemical; conditions: read-out: IC50, α2A antagonism
Sequence of human α2A receptor (P08913 whole entry): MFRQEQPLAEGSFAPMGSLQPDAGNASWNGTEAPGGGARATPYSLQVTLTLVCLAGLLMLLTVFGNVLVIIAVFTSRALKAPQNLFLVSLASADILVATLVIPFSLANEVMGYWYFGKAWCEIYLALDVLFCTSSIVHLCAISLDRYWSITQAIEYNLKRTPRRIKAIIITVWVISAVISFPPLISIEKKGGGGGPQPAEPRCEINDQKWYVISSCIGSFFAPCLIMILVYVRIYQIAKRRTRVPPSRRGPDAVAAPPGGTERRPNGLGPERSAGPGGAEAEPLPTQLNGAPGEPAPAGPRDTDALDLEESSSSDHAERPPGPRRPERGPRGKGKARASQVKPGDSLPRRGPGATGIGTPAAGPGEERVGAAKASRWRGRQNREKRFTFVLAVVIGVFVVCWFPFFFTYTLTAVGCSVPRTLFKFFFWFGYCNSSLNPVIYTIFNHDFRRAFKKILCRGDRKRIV

[7] = target: T3, human 5-HT2B receptor (Homo sapiens, UniProt P41595); experiment: Aequorin assay, antagonist activity at 5-HT2B; type: cell-based
T3 construct: host or cells: CHO-K1 coexpressing mitochondrial apoaequorin
T3 sequence (P41595 whole entry): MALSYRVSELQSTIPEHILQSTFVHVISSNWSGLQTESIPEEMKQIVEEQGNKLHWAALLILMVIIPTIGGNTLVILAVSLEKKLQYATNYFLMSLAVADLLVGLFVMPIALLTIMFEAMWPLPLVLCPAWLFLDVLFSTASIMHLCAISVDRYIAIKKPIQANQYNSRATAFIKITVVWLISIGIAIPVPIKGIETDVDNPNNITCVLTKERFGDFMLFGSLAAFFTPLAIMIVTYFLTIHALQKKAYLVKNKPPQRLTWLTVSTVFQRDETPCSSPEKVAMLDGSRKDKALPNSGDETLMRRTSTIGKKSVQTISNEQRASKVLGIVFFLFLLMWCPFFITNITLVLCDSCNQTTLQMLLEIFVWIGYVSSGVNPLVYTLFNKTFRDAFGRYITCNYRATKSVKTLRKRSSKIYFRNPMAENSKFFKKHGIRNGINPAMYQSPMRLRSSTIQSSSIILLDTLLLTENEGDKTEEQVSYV
Description: Percentage inhibition values were determined for 2-CF3 dihydroergotamine on the 5-HT2B receptor.

[8] = system: Glutamate (mGlu3/mGlu5/mGlu7); experiment: Glutamate receptor screen (Aequorin mGlu3/mGlu5, cAMP mGlu7); type: cell-based, human
Description: For mGlu3 and mGlu5, CHO-K1 cells coexpressing mitochondrial apoaequorin and recombinant human receptor grown to mid-log phase in culture media without antibiotics and supplemented with doxycycline, (final concentration of 600 ng doxycycline/mL), was detached with PBS-EDTA, centrifuged and resuspended in assay buffer (HBSS, 2.1 mM CaCl2, 3 μg/mL GPT (Glutamate-Pyruvate transaminase), 4 mM MEM Sodium Pyruvate, 0.1% BSA protease free) at a concentration of 1×10^6 cells/mL. Cells were incubated at room temperature for at least 4 hours with coelenterazine h. Reference agonist/antagonist was tested to evaluate the performance of the assay and to determine EC50/IC50. […]
Cells expressing the human recombinant receptor of interest were grown in media without antibiotic and detached by gentle flushing with PBS-EDTA (5 mM EDTA), recovered by centrifugation and resuspended in assay buffer (KRH: 5 mM KCl, 1.25 mM MgSO4, 124 mM NaCl, 25 mM HEPES, 13.3 mM glucose, 1.25 mM KH2PO4, 1.45 mM CaCl2, 0.5 g/L BSA). […] Lysis buffer was added and after a 1 hour incubation, cAMP concentrations was determined according to the manufacturer specification with the HTRF kit. […] Lysis buffer was added and after a 1 hour incubation, cAMP concentrations were determined according to the manufacturer specification, with the HTRF kit.

[9] = target: T4, CCK2 (Homo sapiens, UniProt P32239); experiment: Cholecystokinin receptor Aequorin assay; type: cell-based; conditions: antagonism
T4 construct: expressed in transfected cells; host or cells: CHO-AEQ (CHO-K1 with mitochondrial apoaequorin)
T4 sequence (P32239 whole entry): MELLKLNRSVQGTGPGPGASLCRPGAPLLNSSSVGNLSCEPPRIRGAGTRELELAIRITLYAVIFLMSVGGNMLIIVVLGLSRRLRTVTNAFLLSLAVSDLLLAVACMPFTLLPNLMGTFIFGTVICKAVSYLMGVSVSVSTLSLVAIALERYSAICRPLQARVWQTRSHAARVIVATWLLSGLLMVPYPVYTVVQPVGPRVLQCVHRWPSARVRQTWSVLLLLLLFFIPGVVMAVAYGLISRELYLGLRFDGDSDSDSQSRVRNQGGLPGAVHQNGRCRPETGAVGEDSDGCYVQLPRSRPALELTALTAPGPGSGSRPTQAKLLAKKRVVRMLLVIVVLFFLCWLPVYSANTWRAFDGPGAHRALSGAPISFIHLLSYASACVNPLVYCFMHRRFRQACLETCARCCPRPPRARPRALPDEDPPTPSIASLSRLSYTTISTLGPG
Description: as §1, §2

[10] = system: VIP/PACAP (PAC1/VPAC1/VPAC2); experiment: VIP/PACAP receptor Aequorin assays; type: cell-based, human
Description: as §1, §2

[11] = target: T3, human 5-HT2B receptor; experiment: Aequorin assay, agonist activity at 5-HT2B; type: cell-based; conditions: 0.01 nM to 20,000 nM; versus Emax of α-methyl-5-HT
Description: Percentage activation values were determined for 2-CF3 dihydroergotamine at the 5-HT2B receptor.

[12] = target: T5, NK1 (Homo sapiens, UniProt P25103); experiment: Neurokinin receptor Aequorin assay; type: cell-based; conditions: antagonism
T5 construct: expressed in transfected cells; host or cells: CHO-AEQ (CHO-K1 with mitochondrial apoaequorin)
T5 sequence (P25103 whole entry): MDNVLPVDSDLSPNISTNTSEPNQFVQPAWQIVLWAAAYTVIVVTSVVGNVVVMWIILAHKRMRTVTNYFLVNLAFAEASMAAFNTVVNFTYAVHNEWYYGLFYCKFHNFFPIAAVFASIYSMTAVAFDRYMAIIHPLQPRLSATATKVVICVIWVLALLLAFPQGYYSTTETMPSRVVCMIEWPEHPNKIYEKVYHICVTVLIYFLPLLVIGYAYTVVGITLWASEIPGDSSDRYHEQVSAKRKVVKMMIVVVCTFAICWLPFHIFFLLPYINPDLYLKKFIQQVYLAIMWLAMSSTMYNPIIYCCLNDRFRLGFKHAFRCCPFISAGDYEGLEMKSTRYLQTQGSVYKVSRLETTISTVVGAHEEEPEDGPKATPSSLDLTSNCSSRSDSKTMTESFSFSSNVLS
Description: as §1, §2

T1 sequence (Q16602 23-461): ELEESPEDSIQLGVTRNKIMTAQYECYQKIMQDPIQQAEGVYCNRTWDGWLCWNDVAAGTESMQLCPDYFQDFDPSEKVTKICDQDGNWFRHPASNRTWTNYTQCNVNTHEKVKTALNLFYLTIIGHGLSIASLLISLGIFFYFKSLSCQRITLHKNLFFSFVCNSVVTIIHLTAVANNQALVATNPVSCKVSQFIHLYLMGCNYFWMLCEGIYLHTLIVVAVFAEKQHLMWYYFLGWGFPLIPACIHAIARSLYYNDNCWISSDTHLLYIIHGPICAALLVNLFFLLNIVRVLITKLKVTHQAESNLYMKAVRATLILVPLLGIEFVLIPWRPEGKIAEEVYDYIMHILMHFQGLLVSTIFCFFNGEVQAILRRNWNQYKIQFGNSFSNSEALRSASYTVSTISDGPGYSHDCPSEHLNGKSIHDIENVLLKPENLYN
T1 sequence (O60894 27-148 partner): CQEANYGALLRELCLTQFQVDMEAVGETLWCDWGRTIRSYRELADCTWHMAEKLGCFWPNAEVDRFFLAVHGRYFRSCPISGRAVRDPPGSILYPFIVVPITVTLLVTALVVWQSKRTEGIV

CN1C[C@H](C(=O)N[C@]2(C)O[C@@]3(O)[C@@H]4CCCN4C(=O)[C@H](Cc4ccccc4)N3C2=O)CC2c3cccc4[nH]c(C(F)(F)F)c(c34)CC21 (stereo partly shown) [2-CF3-dihydroergotamine]
Activity (Agonism: EC50; Antagonism: IC50) [1]: Inactive | IC50 [2]: 2.78 µM | EC50 [3]: 0.0136 µM | IC50 [4]: 0.207 µM | Activity (Agonism: EC50; Antagonism: IC50) [5]: Inactive | IC50 [6]: 0.404 µM | antagonism of the 5-HT2B receptor ([7]; FIG. 2): potent antagonism | IC50 ([7]; reference agonist at its EC80, read-out: IC50, 5-HT2B antagonism): 0.205 µM | Activity (Agonism: EC50; Antagonism: IC50) [8]: Inactive | IC50 [9]: > 10 µM | Activity (Agonism: EC50; Antagonism: IC50) [10]: Inactive | agonist activity at the 5-HT2B receptor [11]: no agonist activity; also recorded: little agonist activity | IC50 [12]: > 1 µM
